Columns and labels:
[1] = system: Acinetobacter baumannii AB1054 (OXA-23); assay: Checkerboard assay, biapenem potentiation (MPC8); format: cell-based; conditions: concentration to reduce biapenem MIC 8-fold
Description: (§1) The potency and spectrum of β-lactamase inhibitors was determined by assessing their antibiotic potentiation activity.
(§2) The potentiation effect is observed by the reduction of the minimum inhibitory concentration of β-lactam antibiotics in the presence of β-lactamase inhibitors (BLIs). […] Methods for Dilution of Antimicrobial Susceptibility Tests for Bacteria That Grow Aerobically—Eighth Edition; Approved Standard. CLSI Document M07-A8, 2009). In this assay, multiple dilutions of two drugs, namely BLI and β-lactam (biapenem), are being tested, alone and in combination, at concentrations equal to, above and below their respective minimal inhibitory concentrations (MICs). BLIs are solubilized in 10% DMSO at 10 mg/mL. Stock solutions are further diluted, according to the needs of a particular assay, in Mueller Hinton Broth (MHB). Stock solution can be stored at −80° C.
(§3) The checkerboard (CB) assay is performed in microtiter plates. Biapenem is diluted in the x axis, each column containing a single concentration of antibiotic. BLIs are diluted in the y axis, each row containing an equal concentration of BLI. The result of these manipulations is that each well of the microtiter plate contains a unique combination of concentrations of the two agents. The assay is performed in MHB with a final bacterial inoculum of 5×10^5 CFU/mL (from an early-log phase culture). Microtiter plates are incubated during 20 h at 35° C. and are read using a microtiter plate reader (Molecular Devices) at 650 nm as well as visual observation using a microtiter plate reading mirror.
(§4) Biapenem is a carbapenem β-lactam; only selected β-lactamases confer resistance to this class of antibiotics. Among them are serine carbapemenases that belong to class A and class D. Biapenem potentiation is studied in strains expressing various carbapenemases from these classes using CB assays. […] Cyclic boronic acid derivatives were capable of reducing biapenem MICs up to 1000-fold (Table 3).

[2] = system: Klebsiella pneumoniae KP1004 (KPC-2); assay: Checkerboard assay, biapenem potentiation (MPC8); format: cell-based; conditions: concentration to reduce biapenem MIC 8-fold
Description: as §1, §2, §3, §4

[3] = system: Acinetobacter baumannii AB1057 (OXA-58); assay: Checkerboard assay, biapenem potentiation (MPC8); format: cell-based; conditions: concentration to reduce biapenem MIC 8-fold
Description: as §1, §2, §3, §4

[4] = system: Escherichia coli (EC1061) NDM-1; assay: Biapenem MIC at various concentrations of Compound 5; format: cell-based; conditions: EC1061 NDM-1
[5] = system: bacterial strains that expressed the beta-lactamase, NDM-1 and CMY-6; assay: Aztreonam/Tigemonam MIC at various concentrations of BLI (summary); format: cell-based
Description: (§5) MIC values for each bacterial strain were measured for each antimicrobial compound at various concentrations of each BLI.

KP1004 KPC-2 = assay: Dose titration biapenem potentiation assay (MPC1); format: cell-based, Klebsiella pneumoniae; conditions: biapenem 1 μg/mL
KP1008 KPC-2 = assay: Dose titration biapenem potentiation assay (MPC1); format: cell-based, Klebsiella pneumoniae; conditions: biapenem 1 μg/mL
[6] = system: Klebsiella pneumoniae KP1088 (KPC-3, SHV-11, TEM-1); assay: Checkerboard assay, Compound 5 with biapenem; format: cell-based; conditions: KP1088
From the text: as §2, §3

[7] = system: Klebsiella pneumoniae KP1084 (KPC-3, SHV-11, TEM-1); assay: Checkerboard assay, Compound 5 with biapenem; format: cell-based; conditions: KP1084
From the text: as §2, §3

[8] = system: Klebsiella pneumoniae KP1087 (KPC-2, CTX-M-15, SHV-11, TEM-1); assay: Checkerboard assay, Compound 5 with biapenem; format: cell-based; conditions: KP1087
From the text: as §2, §3

[9] = system: Klebsiella pneumoniae KP1083 (KPC-3, SHV-1, TEM-1); assay: Checkerboard assay, Compound 5 with biapenem; format: cell-based; conditions: KP1083
From the text: as §2, §3

[10] = system: Klebsiella oxytoca KX1019 (KPC-2, OXA-2); assay: Checkerboard assay, Compound 5 with biapenem; format: cell-based; conditions: KX1019
From the text: as §2, §3

[11] = system: Klebsiella pneumoniae KP1008 (KPC-2); assay: Checkerboard assay, Compound 5 with biapenem; format: cell-based; conditions: KP1008
From the text: as §2, §3

[12] = system: Enterobacter cloacae ECL1058 (KPC-3, SHV-11, TEM-1); assay: Checkerboard assay, Compound 5 with biapenem; format: cell-based; conditions: ECL1058
From the text: as §2, §3

[13] = system: Enterobacter cloacae ECL1059 (KPC-3, SHV-12, TEM-1); assay: Checkerboard assay, Compound 5 with biapenem; format: cell-based; conditions: ECL1059
From the text: as §2, §3

[14] = system: K. pneumoniae KP1081 (NDM-1, CMY-6, SHV-11, CTX-M-15, TEM-1); assay: Aztreonam/Tigemonam MIC at various concentrations of BLI; format: cell-based; conditions: KP1081
Description: as §5

O=C(O)C[C@@H]1CC[C@H](NC(=O)Cc2cccs2)B(O)O1 [Compound 5, 2-((3R,6S)-2-hydroxy-3-(2-(thiophen-2-yl)acetamido)-1,2-oxaborinan-6-yl)acetic acid]
MPC8 [1]: Z (Z = MPC8 of greater than 1 μg/mL.)
MPC8 [2]: X (X = MPC8 of less than 0.16 μg/mL.)
MPC8 [3]: Z (Z = MPC8 of greater than 1 μg/mL.)
Biapenem MIC ([4]; Compound 5 0.31 μg/ml): 0.13 µg/mL
Biapenem MIC ([4]; Compound 5 0.63 μg/ml): 0.13 µg/mL
Biapenem MIC ([4]; Compound 5 5 μg/ml): 0.125 µg/mL
Biapenem MIC ([4]; Compound 5 10 μg/ml): 0.06 µg/mL
Biapenem MIC ([4]; Compound 5 20 μg/ml): 0.06 µg/mL
effect on Aztreonam or Tigemonam MICs [5]: decreased the Aztreonam or Tigemonan MICs
BPM MPC1 KP1004 KPC-2 (KP1004 KPC-2): X (X = MPC1 of less than 1 μg/mL.)
BPM MPC1 KP1008 KPC-2 (KP1008 KPC-2): X (X = MPC1 of less than 1 μg/mL.)
Biapenem MIC ([6]; Compound 5 0.31 mg/L): X (X = MIC of less than 0.5 mg/L.)
Biapenem MIC ([6]; Compound 5 0.625 mg/L): X (X = MIC of less than 0.5 mg/L.)
Biapenem MIC ([6]; Compound 5 5 mg/L): X (X = MIC of less than 0.5 mg/L.)
Biapenem MIC ([6]; Compound 5 10 mg/L): X (X = MIC of less than 0.5 mg/L.)
Biapenem MIC ([7]; Compound 5 0.31 mg/L): Z (Z = MIC of greater than 4 mg/L.)
Biapenem MIC ([7]; Compound 5 0.625 mg/L): Z (Z = MIC of greater than 4 mg/L.)
Biapenem MIC ([7]; Compound 5 5 mg/L): X (X = MIC of less than 0.5 mg/L.)
Biapenem MIC ([7]; Compound 5 10 mg/L): X (X = MIC of less than 0.5 mg/L.)
Biapenem MIC ([8]; Compound 5 0.31 mg/L): Z (Z = MIC of greater than 4 mg/L.)
Biapenem MIC ([8]; Compound 5 0.625 mg/L): Z (Z = MIC of greater than 4 mg/L.)
Biapenem MIC ([8]; Compound 5 5 mg/L): X (X = MIC of less than 0.5 mg/L.)
Biapenem MIC ([9]; Compound 5 0.31 mg/L): X (X = MIC of less than 0.5 mg/L.)
Biapenem MIC ([9]; Compound 5 0.625 mg/L): X (X = MIC of less than 0.5 mg/L.)
Biapenem MIC ([9]; Compound 5 5 mg/L): X (X = MIC of less than 0.5 mg/L.)
Biapenem MIC ([10]; Compound 5 0.31 mg/L): Y (Y = MIC of 0.5 mg/L to 4 mg/L.)
Biapenem MIC ([10]; Compound 5 0.625 mg/L): Y (Y = MIC of 0.5 mg/L to 4 mg/L.)
Biapenem MIC ([10]; Compound 5 5 mg/L): X (X = MIC of less than 0.5 mg/L.)
Biapenem MIC ([10]; Compound 5 10 mg/L): X (X = MIC of less than 0.5 mg/L.)
Biapenem MIC ([10]; Compound 5 […]): Y (Y = MIC of 0.5 mg/L to 4 mg/L.)
Biapenem MIC ([11]; Compound 5 0.31 mg/L): X (X = MIC of less than 0.5 mg/L.)
Biapenem MIC ([11]; Compound 5 0.625 mg/L): X (X = MIC of less than 0.5 mg/L.)
Biapenem MIC ([11]; Compound 5 5 mg/L): NG (NG = No Growth.)
Biapenem MIC ([11]; Compound 5 10 mg/L): NG (NG = No Growth.)
Biapenem MIC ([11]; Compound 5 […]): X (X = MIC of less than 0.5 mg/L.)
Biapenem MIC ([12]; Compound 5 0.31 mg/L): Y (Y = MIC of 0.5 mg/L to 4 mg/L.)
Biapenem MIC ([12]; Compound 5 0.625 mg/L): Y (Y = MIC of 0.5 mg/L to 4 mg/L.)
Biapenem MIC ([12]; Compound 5 5 mg/L): X (X = MIC of less than 0.5 mg/L.)
Biapenem MIC ([12]; Compound 5 10 mg/L): X (X = MIC of less than 0.5 mg/L.)
Biapenem MIC ([13]; Compound 5 0.31 mg/L): X (X = MIC of less than 0.5 mg/L.)
Biapenem MIC ([13]; Compound 5 0.625 mg/L): X (X = MIC of less than 0.5 mg/L.)
Biapenem MIC ([13]; Compound 5 5 mg/L): X (X = MIC of less than 0.5 mg/L.)
Biapenem MIC ([13]; Compound 5 10 mg/L): X (X = MIC of less than 0.5 mg/L.)
Biapenem MIC ([13]; Compound 5 […]): X (X = MIC of less than 0.5 mg/L.)
Aztreonam MIC (μg/ml) in the presence of BLI ([14]; Compound 5 0.31 μg/ml): 256 µg/mL
Aztreonam MIC (μg/ml) in the presence of BLI ([14]; Compound 5 0.63 μg/ml): 128 µg/mL
Aztreonam MIC (μg/ml) in the presence of BLI ([14]; Compound 5 5 μg/ml): 8 µg/mL
Aztreonam MIC (μg/ml) in the presence of BLI ([14]; Compound 5 10 μg/ml): 4 µg/mL
Aztreonam MIC (μg/ml) in the presence of BLI ([14]; Compound 5 20 μg/ml): 2 µg/mL

Source: US20150119363A1, “METHODS OF TREATING BACTERIAL INFECTIONS” (Rampex Pharmaceuticals, Inc., priority 2012, published 2015)
